The results in this text go back to PubChem BioAssay (NCI).

Experiment in all cases: inhibition of tumour cell growth, NCI panel, 48 h
The subject of test [1] is A549 NSCLC.
Test [2] relates to CCRF-CEM leukemia.
The subject of test [3] is HCT-116 colon.
Test [4] relates to KM12 colon.
In test [5] the test system is LOX IMVI melanoma.
Test [6] concerns M14 melanoma.
The test system of test [7] is NCI-H522 lung.
In test [8] the test system is OVCAR-3 ovarian.
Test [9] concerns OVCAR-5 ovarian.
The subject of test [10] is UACC-62 melanoma.

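Where inhibition never reached the appropriate level, the endpoint shown equals the highest concentration tested. Otherwise, values were interpolated linearly from a five-concentration, 48-hour dose response in 96-well plates. GI50 = concentration required for 50% inhibition of growth. Definition used: TGI = concentration required for complete inhibition of growth.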 Where a SMILES comes first, the peptide text is derived from it. [ ]: non-standard residue; d: D form. The star is where a group is joined. ξ: configuration not given here. X6 = FC(F)(F)c1cc(NC(=S)*)cc(C(F)(F)F)c1; ξF = NC(Cc1ccccc1)C(=O)O

For `Cc1ccc2c(=O)cc(-c3ccc(F)cc3)[nH]c2n1`, the TGI in test [1], in test [2], in [3], in [4], in test [5] and in test [6] was over 100 µM throughout. Moreover, the TGI in test [7] is 84.7 µM; in test [8], over 100 µM; in [9], over 100 µM; in test [10] it was over 100 µM. Further, the results for the GI50 in test [3] and in test [8] were 33.9 µM and 32.2 µM, respectively.

Turning to `O=C1C=C(Cl)C(=O)C(c2ccc(Cl)cc2)=C1`, the TGI in [1] is over 100 µM; in [2], 15.9 µM; in [3] it was 38.1 µM; in test [4] it was over 100 µM; in test [5], 35.7 µM; in test [6], 32.2 µM. Also, the TGI in test [7] is 47.4 µM; in test [8], 34.3 µM; in [9] it was 39.6 µM; in [10], 42.4 µM.

On to `O=S(=O)(NC1=NCCN1C(=S)SN1CCn2c1nsc2=S)c1ccc(OC(F)(F)F)cc1`, for which the GI50 is 21.1 µM in test [1]; 4.01 µM in test [2]; 6.15 µM in [3]; 8.11 µM in test [4]; 8.6 µM in test [5]; 25.9 µM in test [6]. In addition, the GI50 in test [7] is 2.92 µM; in test [8], 7.63 µM; in [9], 21.8 µM; in test [10], 11.6 µM. Moreover, the TGI in [1] was 54.3 µM; in [2], over 100 µM; in test [3], 22.3 µM; in [4], 22.8 µM; in test [5], 22.9 µM; in test [6] it was over 100 µM. In addition, the TGI worked out at 9.8 µM in [7], 22.9 µM in test [8], 36.7 µM in test [9] and 24.4 µM in test [10].

Take `O=C(CC1(O)C(=O)Nc2c(Cl)cc(Cl)cc21)c1ccc(Br)cc1Br` (configuration not stated): the TGI in test [1] was 57.4 µM; in test [2], 3.21 µM; in test [3], 15.2 µM; in test [4], 27.9 µM; in test [5], 15 µM; in [6], 18.5 µM. In addition, the TGI was 8.05 µM in test [7], 43.8 µM in test [8], 31.9 µM in [9] and 25.6 µM in [10].

Turning to `CN/N=C(/Cc1occc(=O)c1O)C(=O)Nc1ccccc1C`, the TGI in test [1], in test [2], in test [3], in test [4], in [5] and in test [6] was over 100 µM in each case. For the same compound, the TGI in [7], in [8], in test [9] and in test [10] was over 100 µM throughout.

With `c1ccc2cc(-c3cc(-c4cc(-c5ccc6ccccc6c5)on4)no3)ccc2c1`, the TGI in [1], in test [2], in test [3], in [4], in test [5] and in test [6] was over 100 µM throughout. The TGI in test [7], in test [8], in test [9] and in test [10] was over 100 µM throughout.

As for `Cc1ccc(NC2=C(Cl)C(=O)N(Cc3ccccc3)C2=O)cc1O`, the GI50 was 42.1 µM in test [1]; 29.6 µM in [2]; 37.7 µM in [3]; 41.4 µM in [4]; 18 µM in test [5]; 51.4 µM in [6]. Further, the GI50 in [7] was 41.2 µM; in test [8], 20.6 µM; in [9], over 100 µM; in [10], 24.4 µM. The TGI was over 100 µM in test [1]; over 100 µM in test [2]; over 100 µM in [3]; over 100 µM in [4]; 63.4 µM in test [5]; over 100 µM in [6]. The TGI was over 100 µM in [7], 70 µM in test [8], over 100 µM in test [9] and over 100 µM in test [10].

With `COc1cc(/C=N/NC(=O)c2ccc(C(F)(F)F)nc2Nc2ccc(Cl)cc2C)ccc1O`, the GI50 in [1] was 3.54 µM; in [2] it was 0.416 µM; in test [3] it was 2.95 µM; in [4], 2.23 µM; in test [5], 1.36 µM; in test [6], 3.76 µM. Also, the GI50 was 3.31 µM in test [7], 1.74 µM in test [8], 2.9 µM in test [9] and 1.88 µM in test [10]. Also, the TGI was 15.1 µM in test [1]; 3.12 µM in test [2]; 12.7 µM in test [3]; 7.16 µM in test [4]; 11.5 µM in test [5]; 14.6 µM in test [6]. Moreover, the TGI in [7] turned out to be 14.2 µM; in test [8], 13 µM; in [9], 15.6 µM; in test [10], 5.01 µM.

For `COC(=O)[C@@H](NC(=O)CNC(=O)[C@H]1CCCN1C(=O)C(Cc1ccccc1)NC(=S)Nc1cc(C(F)(F)F)cc(C(F)(F)F)c1)C(C)C` (some centres not stated) (X6-[ξF][dP]GV-OMe), the GI50 in test [1] is 3.03 µM; in test [2], 3.17 µM; in test [3], 3.34 µM; in [4], 2.88 µM; in test [5] it was 2.25 µM; in test [6], 3.33 µM. Besides, the GI50 in [7] is 3.04 µM; in [8], 2.96 µM; in test [9], 1.93 µM; in test [10], 1.79 µM. Also, the TGI in test [1] came out at 14.4 µM; in test [2] it was 35.1 µM; in test [3], 10.7 µM; in test [4], 7.75 µM; in [5], 5.55 µM; in test [6], 10.5 µM. The TGI in test [7] stood at 8.65 µM; in [8], 8.48 µM; in [9], 3.64 µM; in test [10], 3.98 µM.

`NC(=O)c1cccc2cn(-c3ccc([C@@H]4CCCNC4)cc3)nc12`: the GI50 in [1] was 13.1 µM; in test [2] it was 5.54 µM; in test [3] it was 10.8 µM; in test [4], 15.7 µM; in test [5], 8.16 µM; in test [6], 10.7 µM. In addition, the GI50 in [7] is 20.4 µM; in test [8], 14.8 µM; in test [9] it was 24 µM; in test [10], 13.6 µM. Besides, the TGI in test [1] is 28 µM; in test [2], 97.7 µM; in test [3], 25.1 µM; in [4], 30.6 µM; in test [5], 22.2 µM; in test [6] it was 26.3 µM. Further, the TGI in [7] stood at 55.6 µM; in test [8] it was 31.6 µM; in test [9], 64.8 µM; in test [10], 27 µM.

As to `O=C(/C=C/c1ccccc1)NC1C=Nc2ccc(Cl)cc2NC1=O` (configuration not stated), the TGI was over 100 µM in test [1]; 33.5 µM in [2]; 85.7 µM in [3]; 56.8 µM in test [4]; 55.9 µM in test [5]; 65.6 µM in test [6]. The TGI in [7] was 34.6 µM; in test [8], 56.4 µM; in test [9] it was over 100 µM; in [10], over 100 µM.

Take `CCCCCCCCCCCOc1ccc(C(=O)C(=O)c2ccc(OCCCCCCCCCCC)c(OCCCCCCCCCCC)c2)cc1OCCCCCCCCCCC`: the TGI in test [1], in test [2], in [3], in test [4], in test [5] and in test [6] was over 100 µM in each case. Further, the TGI in test [7], in test [8], in [9] and in test [10] was over 100 µM each time.

For `COC1CCC2C(NS(=O)(=O)c3ccc(C)cc3)CCCC2O1` (configuration not stated) (tested in a mixture with another compound), the TGI is over 34.5 µM in test [1]; over 34.5 µM in test [2]; 15.8 µM in test [3]; over 34.5 µM in test [4]; 13 µM in test [5]; over 34.5 µM in test [6]. Moreover, the TGI is 31.5 µM in [7], over 34.5 µM in [8], over 34.5 µM in [9] and over 34.5 µM in [10].

Regarding `COc1ccc(-c2nc3sccn3c2/C(N)=N/C(=N)N)cc1OC`, the GI50 in [1] is over 100 µM; in test [2], 38.4 µM; in test [3], 19.1 µM; in test [4] it was 24.7 µM; in [5], 37.5 µM; in [6] it was 29.4 µM. For the same compound, the GI50 is 7.85 µM in [7], 31.8 µM in test [8], 78 µM in test [9] and 66 µM in test [10]. In addition, the TGI is over 100 µM in test [1]; over 100 µM in test [2]; 45.2 µM in [3]; 81.8 µM in [4]; over 100 µM in test [5]; 79.5 µM in test [6]. Besides, the TGI in test [7], in test [8], in [9] and in [10] was over 100 µM each time.

As for `Cc1ccc(C(=O)/C(=C/c2ccc([N+](=O)[O-])cc2)SCc2ccc(Cl)cc2)cc1`, the GI50 was 98.5 µM in [1]; 0.283 µM in test [2]; 0.317 µM in test [3]; 1.91 µM in [4]; 0.445 µM in [5]; 2.52 µM in test [6]. Besides, the GI50 was 1.64 µM in [7], 1.72 µM in [8], 2.5 µM in test [9] and 1.34 µM in [10]. For the same compound, the TGI is over 100 µM in [1]; over 100 µM in test [2]; 1.36 µM in [3]; 5.73 µM in test [4]; 1.65 µM in test [5]; 19.4 µM in test [6]. Also, the TGI in test [7] came out at 3.54 µM; in test [8] it was 3.54 µM; in test [9] it was 9.12 µM; in test [10], 3.41 µM.

On to `CC/C=C\CCC/C=C1/C(=O)C=C[C@@H]1C/C=C\CCCC(=O)OC`, for which the GI50 was 11.1 µM in test [1]; 2.57 µM in [2]; 2.44 µM in [3]; 2.46 µM in test [4]; 1.59 µM in test [5]; 3.17 µM in test [6]. The GI50 in [7] is 1.91 µM; in [8], 3.39 µM; in test [9], 5.28 µM; in test [10], 2.57 µM. Also, the TGI in test [1] amounted to 28.4 µM; in test [2], 8.32 µM; in test [3] it was 4.95 µM; in test [4], 6.39 µM; in [5] it was 3.28 µM; in test [6], 10.1 µM. Moreover, the TGI in test [7] was found to be 3.77 µM; in test [8] it was 11.8 µM; in test [9], 17.6 µM; in [10], 6.49 µM.

Take `O=C(Nc1ccccc1)NS(=O)(=O)c1ccc(-n2nc3c(c2-c2cccs2)Cc2ccccc2-3)cc1`: the GI50 is 20.8 µM in test [1]; 13.6 µM in [2]; 9.13 µM in test [3]; 8.08 µM in [4]; 12 µM in [5]; 25 µM in [6]. For the same compound, the GI50 was 31.5 µM in [7], 21.8 µM in [8], 20.1 µM in [9] and 15.8 µM in test [10]. In addition, the TGI in test [1] is over 100 µM; in test [2], over 100 µM; in test [3], 21.3 µM; in test [4], over 100 µM; in test [5] it was 33.6 µM; in test [6], 47 µM. Moreover, the TGI in test [7] was over 100 µM; in test [8] it was over 100 µM; in test [9], 89.7 µM; in test [10] it was 35 µM.

For the compound `O=C(COc1ccc(Br)cc1Br)N1N=C(c2ccc([N+](=O)[O-])o2)CC1(O)c1ccccc1` (configuration not stated), the TGI in [1] is 72.2 µM; in test [2], 14.8 µM; in test [3], 33.2 µM; in [4], 45.3 µM; in test [5], 18.4 µM; in test [6], 21.9 µM. Besides, the TGI in [7] stood at 20.7 µM; in test [8] it was 20.2 µM; in test [9], 98.2 µM; in test [10], 18.7 µM.

In the case of `CCCCCCCCCCCCCCCCCC(CCCCCCCCCCCCCCCCC)OP(=O)(O)O`, the TGI in test [1], in test [2], in test [3], in test [4], in test [5] and in test [6] was over 100 µM each time. The TGI in test [7], in test [8], in test [9] and in [10] was over 100 µM in each case.
